Measured values taken from patent publication EP0983294B1, “B-RING E[…] SULPHATES” (Wyeth, priority 1997, dated 1998).

Tested on: Immature rats
Assay: In vivo uterotropic activity
Details: 0.2 and 2 mg/kg for three days (S.C.)
Method: Immature rats were treated with doses of 0.2 and 2 mg/kg 5,7,9-estratriene-3β,17β-diol for three days (S.C.) as well as additional groups (n=6) of rats treated with 0.5 µg ethinyl estradiol and vehicle as positive and negative controls, respectively.

In the case of `C[C@]12CCc3c(ccc4c3CC[C@H](O)C4)[C@@H]1CC[C@@H]2O` [5,7,9-estratriene-3β,17β-diol], the uterine weight is reported as “uterine weight gains at both concentrations”.
